# Key:
# [1] = test system: mouse macrophage RAW 264.7 cells; format: cell-based; settings: for NO production as the concentration increased: 100 ng/ml LPS, 1.25, 2.5, 5 and 10 μg/ml; for NO production as the concentration increased / Concentration at which the production of NO was the lowest: 24 hours; for Concentration at which the production of NO was the lowest: tested 1.25-10 μg/ml; for Effect relative to the same amount Brevilin-A (potency value of inflammation inhibition rate): from NO production potency formulas, FIG. 12
# Protocol: The amount of NO produced by the cultured RAW 264.7 cells and present in the culture medium was measured using a NO detection kit (cat. No. 21021, Intron) based on the Griess reaction. 100 μl of the culture medium estimated to contain NO was dispensed into 96-well plates, and then 50 μl of N1 buffer (sulfanilamide) was added thereto and reacted at room temperature for 10 minutes. Next, 50 μl of N2 buffer (naphthylethylenediamine) was added thereto and reacted at room temperature for 10 minutes, and then the absorbance was measured at 540 nm. The amount of NO produced was determined using a standard calibration curve obtained using a nitrite standard. In addition, a positive control group (CTL) was treated with only LPS and fresh medium not containing any of the components, and a negative control group was treated with only 100 ng/ml LPS. The measurement results are presented as the average value of three repeated experiments.
# [2] = test system: mouse macrophage RAW 264.7 cells; settings: 24 hours; for Cell viability compared with positive control group (CTL): 10 μg/mL; for Cell viability as the concentration increased (cytotoxicity): 1.25, 2.5, 5 and 10 μg/ml; for Concentration at which the cell viability was the highest: tested 1.25-10 μg/ml
# Protocol: In addition, for comparison, an NO production inhibition measurement experiment and a cell viability measurement experiment were also conducted on the synthetic anti-inflammatory agent dexamethasone.
# The experiments were conducted using mouse macrophage RAW 264.7 cells as an inflammatory model. RAW 264.7 cells were cultured in a 100 mm cell culture dish with DMEM containing 10% fetal bovine serum and 1% penicillin in a 5% CO2 incubator. Cells that reached confluence were detached using a scraper and subcultured.
# Specifically, for the experiment on cell viability, RAW 264.7 cells were dispensed on a 60-mm plate at a density of 2×10^6 cells/dish, and attached to the plate for 24 hours. Then, the cells were treated with fresh media containing each component at concentrations of 1.25, 2.5, 5 and 10 μg/ml and cultured for 24 hours. The number of viable cells was counted by measuring the dehydrogenase present in the mitochondria within the cultured cells. EZ-CYTOX reagent (EZ-1000, Daeilab) was used, and based on the absorbance measured at 450 nm, the cell viability for each concentration was calculated according to the following equation: Cell viability=(absorbance of CMX-treated group/absorbance of untreated group)×100.
smiles,measurement,setting,value
CC(C)C(=O)O[C@H]1[C@@H]2[C@H](C)C(=O)O[C@@H]2C[C@@H](C)[C@@H]2C=CC(=O)[C@]21C [Arnicolide C],NO production as the concentration increased,[1],decreased
same,Concentration at which the production of NO was the lowest,[1]; 100 ng/ml LPS,10 µg/mL
same,Effect relative to the same amount Brevilin-A (potency value of inflammation inhibition rate),[1],0.7
same,Cell viability compared with positive control group (CTL),[2],difference in cell viability from the positive control group (CTL) was significantly small
same,Cell viability as the concentration increased (cytotoxicity),[2],no significant change
C=C(C)C(=O)O[C@H]1[C@@H]2[C@H](C)C(=O)O[C@@H]2C[C@@H](C)[C@@H]2C=CC(=O)[C@]21C [Arnicolide D],NO production as the concentration increased,[1],decreased
same,NO production compared with positive control group (CTL),"[1]; 5 μg/mL, 100 ng/ml LPS",lower than that in the positive control group (CTL)
same,Effect relative to the same amount Brevilin-A (potency value of inflammation inhibition rate),[1],1.5
same,Cell viability as the concentration increased (cytotoxicity),[2],no significant change
same,Concentration at which the cell viability was the highest,[2],5000 ng/mL
C/C=C(/C)C(=O)O[C@H]1[C@@H]2[C@H](C)C(=O)O[C@@H]2C[C@@H](C)[C@@H]2C=CC(=O)[C@]21C [Brevilin A],NO production as the concentration increased,[1],decreased
same,Concentration at which the production of NO was the lowest,[1]; 100 ng/ml LPS,5 µg/mL
same,Effect relative to the same amount Brevilin-A (potency value of inflammation inhibition rate),[1],1.0
same,Cell viability as the concentration increased (cytotoxicity),[2],no significant change
same,Concentration at which the cell viability was the highest,[2],5000 ng/mL
C/C=C(\C)C(=O)O[C@H]1[C@@H]2[C@H](C)C(=O)O[C@@H]2C[C@@H](C)[C@@H]2C=CC(=O)[C@]21C [Microhelenin C],NO production as the concentration increased,[1],decreased
same,Concentration at which the production of NO was the lowest,[1]; 100 ng/ml LPS,10 µg/mL
same,Effect relative to the same amount Brevilin-A (potency value of inflammation inhibition rate),[1],0.8
same,Cell viability compared with positive control group (CTL),[2],somewhat higher than that in the positive control group (CTL)
same,Cell viability as the concentration increased (cytotoxicity),[2],no significant change

# From patent US20250032385A1, “FUNCTIONAL COMPOSITION FOR ALOPECIA COMPRISING CENTIPEDA MINIMA-DERIVED EXTRACT” (priority 2021, published 2025)
